Data published in patent US10542989B2, “Synergistic dietary supplement compositions for enhancing physical performance and energy levels” (LAILA NUTRACEUTICALS, priority 2015, dated 2020).

Tests used:
Swiss albino mice [1] = experiment: Energy and endurance forced swim test (FST) with constant load; format: in vivo; conditions: for Activity during forced swimming compared to control group (in words): 10 minutes of forced swimming, day 21; for Average Velocity / Distance Travelled (mm) / Fast Swimming Time / Resting Time / Slow Swimming: oral, 21 days, 150 mg/kg (Caffeine 10 mg/kg), 10 min swim on day 21, Mean ± SEM
Experimental: The efficacy of the compositions LI12522F2, LI89032F3 and LI80020F3 for enhancing energy and endurance was further evaluated in an animal study. […] On day 21, one hour after the treatment the mice were forced to swim with a constant load (10% of its body weight attached to its tail) in an acrylic cylinder filled with water. This test was monitored for 10 minutes using the SMART video tracking system ([…]). Various swimming parameters were recorded and analyzed by smart software. […] Swiss albino mice were acclimatized for 5 days before initiation of the study. Healthy Swiss albino mice were selected and randomly divided (n=6) into different treatment groups. […] On day 21, one hour after the treatment the mice were forced to swim with a constant load (10% of its body weight attached to its tail) in an acrylic cylinder filled with water. This test was monitored for 10 minutes using the SMART video tracking system ([…]). Various swimming parameters were recorded and analyzed by smart software. Measured Swimming parameters include, resting time, slow moving time, fast moving time, total moving time, path length of swimming and average velocity.

Swiss albino mice [2] = experiment: Grip strength measurement (grip strength meter); format: in vivo; conditions: oral, 150 mg/kg (Caffeine 10 mg/kg), Mean ± SEM
Experimental: Similarly, after 21 days of treatment, the grip strength of mice was measured by using Grip strength meter (UgoBasile, Italy). Animals were trained and habituated to the experimental environment and conditions for 5 days. Each mice was allowed to grasp the grasping bar and it was pulled back gently in a horizontal plane by tail with gradually increasing force till the pulling force overcomes the grip strength of the animal. The force applied at the moment when the mice leaves its grasp on the grasping bar was recorded as grip strength in grams.
After 21 days of treatment Grip strength of mice was measured by using Grip strength meter (UgoBasile, Italy). Animals were trained and habituated to the experimental environment and conditions for 5 days. Each mice was allowed to grasp the grasping bar and it was pulled back gently in a horizontal plane by tail with gradually increasing force till the pulling force overcomes the grip strength of the animal. The force applied at the moment when the mice leaves its grasp on the grasping bar was recorded as grip strength in grams. Three trials were conducted on each animal and average grip strength was calculated.

Cn1c(=O)c2c(ncn2C)n(C)c1=O [Caffeine]
Activity during forced swimming compared to control group (in words) (Swiss albino mice [1]): more active and energetic
Average Velocity (Swiss albino mice [1]): 49.80
Distance Travelled (mm) (Swiss albino mice [1]): 28740.25 mm
Fast Swimming Time (Swiss albino mice [1]): 82.16 s
Resting Time (Swiss albino mice [1]): 399.64 s
Slow Swimming (Swiss albino mice [1]): 92.12 s
Average Grip Strength measured after 21 Days (Swiss albino mice [2]): 56.07 ± 10.37 grams

C[N+](C)(C)C[C@H](O)CC(=O)[O-] [L-Carnitine]
Activity during forced swimming compared to control group (in words) (Swiss albino mice [1]): more active and energetic
Average Velocity (Swiss albino mice [1]): 44.24
Distance Travelled (mm) (Swiss albino mice [1]): 26197.58 mm
Fast Swimming Time (Swiss albino mice [1]): 67.64 s
Resting Time (Swiss albino mice [1]): 419.52 s
Slow Swimming (Swiss albino mice [1]): 104.92 s
Average Grip Strength measured after 21 Days (Swiss albino mice [2]): 39.20 ± 7.51 grams
